From ChEMBL document CHEMBL4507273 (2021)

What was measured:
[1] = target: NT-3 growth factor receptor (Homo sapiens) (UniProt Q16288); details: Compound concentration 1000.0 nM
[2] = target: Mitogen-activated protein kinase 8 (Homo sapiens) (UniProt P45983); details: Compound concentration 1000.0 nM
[3] = target: Non-receptor tyrosine-protein kinase TNK1 (Homo sapiens) (UniProt Q13470); details: Compound concentration 1000.0 nM
[4] = system: ALK tyrosine kinase receptor (Homo sapiens), Q9UM73 [L1196M]; details: Compound concentration 1000.0 nM
Sequence of ALK tyrosine kinase receptor (Homo sapiens), Q9UM73 [L1196M] (Q9UM73 whole entry L1196M, looked up): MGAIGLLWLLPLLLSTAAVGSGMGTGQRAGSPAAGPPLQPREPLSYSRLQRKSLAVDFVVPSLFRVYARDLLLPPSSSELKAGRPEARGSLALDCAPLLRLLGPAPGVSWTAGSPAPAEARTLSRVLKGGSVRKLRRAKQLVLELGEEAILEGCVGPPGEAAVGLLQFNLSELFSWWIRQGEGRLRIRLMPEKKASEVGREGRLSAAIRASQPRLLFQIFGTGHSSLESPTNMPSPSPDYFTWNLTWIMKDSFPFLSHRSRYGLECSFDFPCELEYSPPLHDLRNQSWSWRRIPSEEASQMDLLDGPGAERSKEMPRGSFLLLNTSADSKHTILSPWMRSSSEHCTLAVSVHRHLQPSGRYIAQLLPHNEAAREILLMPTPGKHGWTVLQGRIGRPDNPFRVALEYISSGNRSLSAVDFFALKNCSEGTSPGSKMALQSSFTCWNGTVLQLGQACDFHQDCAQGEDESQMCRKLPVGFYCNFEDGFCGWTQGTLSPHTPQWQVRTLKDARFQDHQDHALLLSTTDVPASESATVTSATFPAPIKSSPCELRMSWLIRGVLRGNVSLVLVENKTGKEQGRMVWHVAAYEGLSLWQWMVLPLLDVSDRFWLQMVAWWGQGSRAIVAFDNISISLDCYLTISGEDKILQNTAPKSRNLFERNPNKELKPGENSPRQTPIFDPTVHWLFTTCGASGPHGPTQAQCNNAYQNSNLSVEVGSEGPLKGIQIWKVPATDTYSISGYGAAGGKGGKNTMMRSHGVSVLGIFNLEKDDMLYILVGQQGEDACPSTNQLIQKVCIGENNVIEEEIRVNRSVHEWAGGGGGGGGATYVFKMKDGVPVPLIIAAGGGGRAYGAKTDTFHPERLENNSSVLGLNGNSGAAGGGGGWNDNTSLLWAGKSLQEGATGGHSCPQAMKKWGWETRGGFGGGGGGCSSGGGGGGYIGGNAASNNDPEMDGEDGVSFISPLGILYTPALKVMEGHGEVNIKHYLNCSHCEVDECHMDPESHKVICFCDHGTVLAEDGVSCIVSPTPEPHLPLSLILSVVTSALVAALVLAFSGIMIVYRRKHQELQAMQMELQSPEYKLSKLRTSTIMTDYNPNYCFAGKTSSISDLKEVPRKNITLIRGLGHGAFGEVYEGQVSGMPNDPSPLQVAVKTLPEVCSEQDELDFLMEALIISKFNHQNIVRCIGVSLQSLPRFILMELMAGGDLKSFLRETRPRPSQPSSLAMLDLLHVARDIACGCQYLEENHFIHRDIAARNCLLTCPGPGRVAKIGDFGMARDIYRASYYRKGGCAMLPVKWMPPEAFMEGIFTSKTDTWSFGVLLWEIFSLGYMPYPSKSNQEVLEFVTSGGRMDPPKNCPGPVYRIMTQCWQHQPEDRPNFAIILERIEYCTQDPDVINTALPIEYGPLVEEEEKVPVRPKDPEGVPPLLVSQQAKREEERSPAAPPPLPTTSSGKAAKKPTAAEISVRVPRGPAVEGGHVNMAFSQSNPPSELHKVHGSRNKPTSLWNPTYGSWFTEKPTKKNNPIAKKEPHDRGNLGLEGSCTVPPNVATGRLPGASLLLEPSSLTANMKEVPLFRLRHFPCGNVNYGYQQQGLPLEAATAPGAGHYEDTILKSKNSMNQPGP

[5] = target: Ribosomal protein S6 kinase alpha-3 (Homo sapiens) (UniProt P51812); details: Compound concentration 1000.0 nM
[6] = target: Serine/threonine-protein kinase Nek5 (Homo sapiens) (UniProt Q6P3R8); details: Compound concentration 1000.0 nM
[7] = system: Phosphatidylinositol 4,5-bisphosphate 3-kinase catalytic subunit alpha isoform (Homo sapiens), P42336 [E545K]; details: Compound concentration 1000.0 nM
[8] = target: Mitogen-activated protein kinase kinase kinase 3 (Homo sapiens) (UniProt Q99759); details: Compound concentration 1000.0 nM
Sequence of Mitogen-activated protein kinase kinase kinase 3 (Homo sapiens) (Q99759 whole entry): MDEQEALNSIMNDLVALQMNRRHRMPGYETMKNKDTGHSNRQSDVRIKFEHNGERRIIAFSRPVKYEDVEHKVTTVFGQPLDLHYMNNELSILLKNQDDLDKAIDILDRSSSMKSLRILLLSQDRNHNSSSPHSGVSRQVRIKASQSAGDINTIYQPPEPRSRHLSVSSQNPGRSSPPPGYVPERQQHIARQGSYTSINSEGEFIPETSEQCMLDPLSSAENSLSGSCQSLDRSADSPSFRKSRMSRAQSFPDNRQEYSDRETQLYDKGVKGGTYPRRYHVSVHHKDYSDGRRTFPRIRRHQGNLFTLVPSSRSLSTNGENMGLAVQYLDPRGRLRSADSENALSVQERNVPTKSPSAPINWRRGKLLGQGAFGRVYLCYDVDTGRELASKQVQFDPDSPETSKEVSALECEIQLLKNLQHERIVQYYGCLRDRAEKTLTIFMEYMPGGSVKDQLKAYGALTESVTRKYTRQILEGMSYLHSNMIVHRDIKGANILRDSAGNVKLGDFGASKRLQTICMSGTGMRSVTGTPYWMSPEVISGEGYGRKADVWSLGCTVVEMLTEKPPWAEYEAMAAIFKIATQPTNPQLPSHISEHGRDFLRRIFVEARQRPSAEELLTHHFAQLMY

[9] = target: T1, 5-hydroxytryptamine receptor 1A (Homo sapiens, UniProt P08908); assay: GPCRScan assay: inhibition of 5-HT1A; set-up: radioligand conc. used [nm] 0.5 – 1.0, parental cells stable CHO
T1 sequence (P08908 whole entry): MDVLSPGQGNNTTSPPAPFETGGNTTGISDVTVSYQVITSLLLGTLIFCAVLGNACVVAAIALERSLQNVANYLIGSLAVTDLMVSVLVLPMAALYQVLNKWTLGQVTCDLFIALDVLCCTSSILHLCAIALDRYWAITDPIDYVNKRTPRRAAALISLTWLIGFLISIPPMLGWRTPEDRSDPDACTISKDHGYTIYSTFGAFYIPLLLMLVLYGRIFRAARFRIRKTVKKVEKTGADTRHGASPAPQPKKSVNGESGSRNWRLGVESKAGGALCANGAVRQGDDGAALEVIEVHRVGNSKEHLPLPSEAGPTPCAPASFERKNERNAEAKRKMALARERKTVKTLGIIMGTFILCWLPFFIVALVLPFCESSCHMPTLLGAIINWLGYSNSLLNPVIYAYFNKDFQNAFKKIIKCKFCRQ

[10] = target: T2, 5-hydroxytryptamine receptor 2C (Homo sapiens, UniProt P28335); assay: GPCRScan assay: inhibition of 5-HT2C; set-up: radioligand conc. used [nm] 1.0 – 2.5, parental cells HEK T
T2 sequence (P28335 whole entry): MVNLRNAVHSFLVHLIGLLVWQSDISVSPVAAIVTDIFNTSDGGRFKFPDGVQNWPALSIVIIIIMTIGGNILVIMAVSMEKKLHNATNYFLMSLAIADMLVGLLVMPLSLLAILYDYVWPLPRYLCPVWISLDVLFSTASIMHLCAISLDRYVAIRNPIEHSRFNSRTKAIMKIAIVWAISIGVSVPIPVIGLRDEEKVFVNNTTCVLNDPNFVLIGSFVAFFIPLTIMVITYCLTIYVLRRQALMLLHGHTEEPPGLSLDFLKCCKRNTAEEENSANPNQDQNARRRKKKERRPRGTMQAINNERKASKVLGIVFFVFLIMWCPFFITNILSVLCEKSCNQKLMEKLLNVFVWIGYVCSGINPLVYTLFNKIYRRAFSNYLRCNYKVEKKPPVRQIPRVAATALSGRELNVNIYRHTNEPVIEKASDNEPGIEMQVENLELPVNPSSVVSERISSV

[11] = target: Maternal embryonic leucine zipper kinase (Homo sapiens) (UniProt Q14680); details: Compound concentration 1000.0 nM
[12] = target: Cyclin-G-associated kinase (Homo sapiens) (UniProt O14976); details: Compound concentration 1000.0 nM
[13] = system: Tyrosine-protein kinase ABL1 (Homo sapiens), P00519 [T315I]; details: Compound concentration 1000.0 nM
[14] = target: Beta-2 adrenergic receptor (Homo sapiens) (UniProt P07550); details: Compound concentration 10.0 uM
[15] = target: Focal adhesion kinase 1 (Homo sapiens) (UniProt Q05397); details: Compound concentration 1000.0 nM
[16] = target: Fibroblast growth factor receptor 3 (Homo sapiens) (UniProt P22607); details: Compound concentration 1000.0 nM
[17] = target: LIM domain kinase 2 (Homo sapiens) (UniProt P53671); details: Compound concentration 1000.0 nM
[18] = target: Muscarinic acetylcholine receptor M2 (Homo sapiens) (UniProt P08172); details: Compound concentration 10.0 uM
[19] = system: Epidermal growth factor receptor (Homo sapiens), P00533 [T790M]; details: Compound concentration 1000.0 nM
[20] = target: Serine/threonine-protein kinase PRP4 homolog (Homo sapiens) (UniProt Q13523); details: Compound concentration 1000.0 nM
Sequence of Serine/threonine-protein kinase PRP4 homolog (Homo sapiens) (Q13523 whole entry): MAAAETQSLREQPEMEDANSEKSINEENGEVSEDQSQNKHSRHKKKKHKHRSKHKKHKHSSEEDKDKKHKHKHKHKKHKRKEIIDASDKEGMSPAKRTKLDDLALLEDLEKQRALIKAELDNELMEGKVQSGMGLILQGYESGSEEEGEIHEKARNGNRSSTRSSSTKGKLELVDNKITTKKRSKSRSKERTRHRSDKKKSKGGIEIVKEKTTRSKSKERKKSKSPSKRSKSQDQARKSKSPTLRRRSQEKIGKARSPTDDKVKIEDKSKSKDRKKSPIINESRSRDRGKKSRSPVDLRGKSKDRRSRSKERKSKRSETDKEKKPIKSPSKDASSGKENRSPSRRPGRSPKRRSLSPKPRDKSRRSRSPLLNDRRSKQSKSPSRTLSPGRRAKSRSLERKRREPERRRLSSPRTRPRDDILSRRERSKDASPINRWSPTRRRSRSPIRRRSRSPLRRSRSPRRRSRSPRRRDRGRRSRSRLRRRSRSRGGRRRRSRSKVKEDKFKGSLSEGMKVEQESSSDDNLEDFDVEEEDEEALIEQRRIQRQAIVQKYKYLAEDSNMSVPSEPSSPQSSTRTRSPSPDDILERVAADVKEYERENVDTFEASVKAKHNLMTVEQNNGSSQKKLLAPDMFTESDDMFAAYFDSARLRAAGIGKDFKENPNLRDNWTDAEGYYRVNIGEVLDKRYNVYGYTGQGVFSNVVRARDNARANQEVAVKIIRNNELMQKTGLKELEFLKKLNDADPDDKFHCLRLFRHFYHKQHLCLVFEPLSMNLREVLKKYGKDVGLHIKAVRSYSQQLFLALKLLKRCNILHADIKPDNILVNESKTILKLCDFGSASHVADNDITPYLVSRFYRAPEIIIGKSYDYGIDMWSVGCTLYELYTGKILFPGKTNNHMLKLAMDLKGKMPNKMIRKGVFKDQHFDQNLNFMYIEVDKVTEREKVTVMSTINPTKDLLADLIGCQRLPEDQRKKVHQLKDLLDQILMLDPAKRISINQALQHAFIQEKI

[21] = target: Dual specificity mitogen-activated protein kinase kinase 4 (Homo sapiens) (UniProt P45985); details: Compound concentration 1000.0 nM
Sequence of Dual specificity mitogen-activated protein kinase kinase 4 (Homo sapiens) (P45985 whole entry): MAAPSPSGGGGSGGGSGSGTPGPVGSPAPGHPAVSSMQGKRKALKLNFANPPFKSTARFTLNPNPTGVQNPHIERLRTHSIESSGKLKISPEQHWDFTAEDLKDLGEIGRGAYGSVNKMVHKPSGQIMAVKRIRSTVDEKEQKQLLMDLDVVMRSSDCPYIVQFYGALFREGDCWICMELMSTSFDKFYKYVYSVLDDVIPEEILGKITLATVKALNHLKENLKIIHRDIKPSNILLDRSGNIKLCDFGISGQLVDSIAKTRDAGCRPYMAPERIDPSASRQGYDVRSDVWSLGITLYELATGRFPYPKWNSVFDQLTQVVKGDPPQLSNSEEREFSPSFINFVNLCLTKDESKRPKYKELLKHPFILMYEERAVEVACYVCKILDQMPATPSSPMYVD

[22] = target: Sodium-dependent serotonin transporter (Homo sapiens, UniProt P31645); details: Compound concentration 10.0 uM
[23] = target: Serine/threonine-protein kinase D1 (Homo sapiens) (UniProt Q15139); details: Compound concentration 1000.0 nM
[24] = system: ALK tyrosine kinase receptor (Homo sapiens), Q9UM73 [C1156Y]; details: Compound concentration 1000.0 nM
Sequence of ALK tyrosine kinase receptor (Homo sapiens), Q9UM73 [C1156Y] (Q9UM73 whole entry C1156Y, looked up): as the sequence (Q9UM73 whole entry L1196M, looked up) above, with C1156Y, M1196L counted along it

[25] = target: Dual specificity testis-specific protein kinase 1 (Homo sapiens) (UniProt Q15569); details: Compound concentration 1000.0 nM
[26] = target: Calcium/calmodulin-dependent protein kinase type 1B (Homo sapiens) (UniProt Q6P2M8); details: Compound concentration 1000.0 nM
Sequence of Calcium/calmodulin-dependent protein kinase type 1B (Homo sapiens) (Q6P2M8 whole entry): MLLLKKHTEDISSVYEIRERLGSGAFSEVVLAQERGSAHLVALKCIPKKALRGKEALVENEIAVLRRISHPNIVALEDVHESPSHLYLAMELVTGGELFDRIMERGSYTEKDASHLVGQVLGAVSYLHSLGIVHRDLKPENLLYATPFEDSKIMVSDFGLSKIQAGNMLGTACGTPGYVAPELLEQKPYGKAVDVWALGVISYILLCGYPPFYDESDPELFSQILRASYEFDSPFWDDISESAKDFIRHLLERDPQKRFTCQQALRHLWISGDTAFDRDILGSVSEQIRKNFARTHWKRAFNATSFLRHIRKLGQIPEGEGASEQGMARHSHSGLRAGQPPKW

[27] = target: Bone morphogenetic protein receptor type-2 (Homo sapiens) (UniProt Q13873); details: Compound concentration 1000.0 nM
[28] = target: Ephrin type-B receptor 4 (Homo sapiens) (UniProt P54760); details: Compound concentration 1000.0 nM
Mu-type opioid receptor = Mu-type opioid receptor (Homo sapiens, UniProt P35372); details: Compound concentration 10.0 uM
[29] = system: Receptor-type tyrosine-protein kinase FLT3 (Homo sapiens), P36888 [UNDEFINED MUTATION]; details: Compound concentration 1000.0 nM
[30] = target: Activin receptor type-1B (Homo sapiens) (UniProt P36896); details: Compound concentration 1000.0 nM
[31] = target: Tyrosine-protein kinase JAK2 (Homo sapiens) (UniProt O60674); details: Compound concentration 1000.0 nM
[32] = target: Mitogen-activated protein kinase 10 (Homo sapiens) (UniProt P53779); details: Compound concentration 1000.0 nM

Sequence of Non-receptor tyrosine-protein kinase TNK1 (Homo sapiens) (Q13470 whole entry): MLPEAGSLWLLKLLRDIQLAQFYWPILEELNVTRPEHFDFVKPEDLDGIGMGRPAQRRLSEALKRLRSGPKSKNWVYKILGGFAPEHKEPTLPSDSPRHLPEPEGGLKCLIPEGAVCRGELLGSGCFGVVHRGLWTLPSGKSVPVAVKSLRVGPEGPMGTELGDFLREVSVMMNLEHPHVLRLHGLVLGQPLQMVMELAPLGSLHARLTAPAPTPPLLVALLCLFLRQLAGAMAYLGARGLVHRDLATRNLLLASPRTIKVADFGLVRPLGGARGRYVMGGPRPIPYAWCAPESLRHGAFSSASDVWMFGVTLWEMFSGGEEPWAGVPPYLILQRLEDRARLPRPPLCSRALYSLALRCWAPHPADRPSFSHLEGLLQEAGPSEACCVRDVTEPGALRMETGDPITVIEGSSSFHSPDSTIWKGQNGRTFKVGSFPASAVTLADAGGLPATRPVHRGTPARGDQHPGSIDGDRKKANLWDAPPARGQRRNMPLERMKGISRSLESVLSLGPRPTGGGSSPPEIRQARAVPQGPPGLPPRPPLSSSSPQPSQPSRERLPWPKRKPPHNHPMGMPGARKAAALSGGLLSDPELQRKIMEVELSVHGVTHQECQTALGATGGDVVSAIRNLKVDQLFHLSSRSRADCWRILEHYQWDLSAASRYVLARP

CNCc1ccccc1-c1csc([C@@H](C)Nc2nc(C)nc3cc(OC)c(OC)cc23)c1 [BAY-293]
3350 nM: Ki ([9]; read-out: pKi (converted))
2880 nM: Ki ([10]; read-out: pKi (converted))
inactive: residual activity [1] 88% | residual activity [2] 66% | residual activity [3] 64% | residual activity [4] 100% | residual activity [5] 76% | residual activity [6] 99% | residual activity [7] 78% | residual activity [8] 83% | residual activity [11] 53% | residual activity [12] 88% | residual activity [13] 100% | inhibition [14] 12.1% | residual activity [15] 86% | residual activity [16] 90% | residual activity [17] 96% | residual activity [19] 68% | residual activity [20] 96% | residual activity [21] 86% | inhibition [22] 47.4% | residual activity [23] 90% | residual activity [24] 100% | residual activity [25] 83% | residual activity [26] 95% | residual activity [27] 100% | residual activity [28] 99% | inhibition (Mu-type opioid receptor) 46.8% | residual activity [29] 57% | residual activity [30] 91% | residual activity [31] 67% | residual activity [32] 71%
3630 nM: Ki ([9]; read-out: Ki)
3400 nM: Ki ([10]; read-out: Ki)
active: inhibition [18] 74.2%

CNCc1ccccc1-c1csc([C@H](C)Nc2nc(C)nc3cc(OC)c(OC)cc23)c1 [BAY-294]
active: inhibition [18] 65.4% | inhibition [22] 56.2% | inhibition (Mu-type opioid receptor) 67.3%
inactive: residual activity [1] 100% | residual activity [2] 81% | residual activity [3] 85% | residual activity [4] 93% | residual activity [5] 78% | residual activity [6] 100% | residual activity [7] 75% | residual activity [8] 87% | residual activity [11] 74% | residual activity [12] 90% | residual activity [13] 95% | inhibition [14] 18.2% | residual activity [15] 92% | residual activity [16] 98% | residual activity [17] 100% | residual activity [19] 76% | residual activity [20] 100% | residual activity [21] 100% | residual activity [23] 100% | residual activity [24] 100% | residual activity [25] 100% | residual activity [26] 100% | residual activity [27] 100% | residual activity [28] 100% | residual activity [29] 79% | residual activity [30] 100% | residual activity [31] 63% | residual activity [32] 74%
391 nM: Ki ([9]; read-out: Ki)
692 nM: Ki ([10]; read-out: pKi (converted))
706 nM: Ki ([10]; read-out: Ki)
